Key:
[1] = molecular target: Tubulin alpha chain (Sus scrofa) (UniProt P02550); test: Tested for the reduction of the supernatant protein concentration by tubulin assembly assay; format: functional
[2] = Ratio between ED50 of compound and ED50 of taxol; format: functional

Sequence of Tubulin alpha chain (Sus scrofa) (P02550 whole entry, looked up): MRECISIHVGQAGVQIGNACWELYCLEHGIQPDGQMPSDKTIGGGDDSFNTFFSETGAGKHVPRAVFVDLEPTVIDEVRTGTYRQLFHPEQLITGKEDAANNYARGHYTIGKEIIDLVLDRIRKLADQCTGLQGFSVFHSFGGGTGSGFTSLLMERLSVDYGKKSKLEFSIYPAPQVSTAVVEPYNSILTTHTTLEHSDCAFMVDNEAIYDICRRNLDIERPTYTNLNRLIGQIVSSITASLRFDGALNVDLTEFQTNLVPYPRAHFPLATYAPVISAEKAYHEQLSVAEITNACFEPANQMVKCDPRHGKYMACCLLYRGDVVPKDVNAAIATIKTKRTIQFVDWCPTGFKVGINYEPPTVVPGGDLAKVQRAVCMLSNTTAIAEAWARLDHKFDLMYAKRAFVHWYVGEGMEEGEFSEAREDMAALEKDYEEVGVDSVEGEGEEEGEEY

CC(=O)O[C@@]12CO[C@@H]1C[C@H](O)[C@@]1(C)C(=O)[C@H](O)C3=C(C)[C@@H](OC(=O)[C@H](O)[C@@H](NC(=O)OC(C)(C)C)c4ccccc4)C[C@@](O)([C@@H](OC(=O)c4ccccc4)[C@H]21)C3(C)C
ED50 [1]: > 25 µM | Ratio [2]: > 27

CC(=O)O[C@H]1C(=O)[C@@]2(C)[C@H]([C@H](OC(=O)c3ccccc3)[C@]3(O)C[C@H](OC(=O)[C@H](O)[C@@H](NC(=O)c4ccccc4)c4ccccc4)C(C)=C1C3(C)C)[C@]1(OC(C)=O)CO[C@@H]1C[C@@H]2O
ED50 [1]: 0.93 µM | Ratio [2]: 1

CC(=O)O[C@@]12CO[C@@H]1C[C@H](O)[C@@]1(C)C(=O)[C@H](O)C3=C(C)[C@@H](OC(=O)[C@H](O)C(NC(=O)c4ccccc4)c4ccccc4)C[C@@](O)([C@@H](OC(=O)c4ccccc4)C12)C3(C)C (stereo partly specified)
ED50 [1]: > 25 µM | Ratio [2]: > 27

— ChEMBL document CHEMBL1127456, “Structure-activity studies of antitumor taxanes: synthesis of novel C-13 side chain homologated taxol and taxotere analogs” (J Med Chem, 1994)
